{"source": "patent US20260284208A1", "about": "“SYSTEM” (Oxford University Innovation Limited, priority 2023, published 2026)", "tested_on": "library of 8,380 IKZF3 degrons (ZF-eGFP/mCherry reporter) in Jurkat cells", "test": "Pooled library screen (FACS, NGS, limma voom LogFC of positive vs negative read counts)", "assay_type": "cell-based, human", "outline": "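Cells were lentivirally transduced at MOI <0.3, and mCherry+ cells were sorted 6 days later. Eight days after sorting, cells were treated with DMSO or thalidomide analog for 18 h at 37 °C. mCherry+GFPlow (DMSO-set gate, DAPI-excluded) and remaining cells were sorted, and degrons were PCR-amplified from gDNA and sequenced (>600× coverage, 3 biological replicates).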"}
{"smiles": "O=C1CCC(N2C(=O)c3ccccc3C2=O)C(=O)N1", "note": "(centres unmarked) [A32, 2-(2,6-dioxopiperidin-3-yl)isoindoline-1,3-dione]", "values": [{"measurement": "A32_logFC", "setting": "Degron-ID 794, SEQ ID NO 61, 46F_47E_49E_50I_52G_53A_54R_55F_67L", "result": 3.549}, {"measurement": "A32_logFC", "setting": "Degron-ID 834, SEQ ID NO 125, 46F_47E_49E_50V_52G_53A_54R_55F_67L", "result": 3.292}, {"measurement": "A32_logFC", "setting": "Degron-ID 911, SEQ ID NO 130, 46F_47E_49P_50I_52G_53A_54N_55F_67L", "result": 3.269}, {"measurement": "A32_logFC", "setting": "Degron-ID 914, SEQ ID NO 108, 46F_47E_49P_50I_52G_53A_54R_55F_67L", "result": 3.367}, {"measurement": "A32_logFC", "setting": "Degron-ID 915, SEQ ID NO 119, 46F_47E_49P_50I_52G_53A_54S_55F_67L", "result": 3.325}, {"measurement": "A32_logFC", "setting": "Degron-ID 917, SEQ ID NO 116, 46F_47E_49P_50I_52G_53A_54V_55F_67L", "result": 3.331}, {"measurement": "A32_logFC", "setting": "Degron-ID 1752, SEQ ID NO 91, 46F_47I_49E_50I_52G_53A_54P_55F_67L", "result": 3.433}, {"measurement": "A32_logFC", "setting": "Degron-ID 2392, SEQ ID NO 93, 46F_47L_49P_50V_52G_53A_54P_55F_67L", "result": 3.414}, {"measurement": "A32_logFC", "setting": "Degron-ID 2881, SEQ ID NO 123, 46F_47Q_49D_50I_52G_53A_54C_55F_67L", "result": 3.299}, {"measurement": "A32_logFC", "setting": "Degron-ID 2887, SEQ ID NO 82, 46F_47Q_49D_50I_52G_53A_54I_55F_67L", "result": 3.467}, {"measurement": "A32_logFC", "setting": "Degron-ID 2888, SEQ ID NO 126, 46F_47Q_49D_50I_52G_53A_54K_55F_67L", "result": 3.282}, {"measurement": "A32_logFC", "setting": "Degron-ID 2892, SEQ ID NO 112, 46F_47Q_49D_50I_52G_53A_54P_55F_67L", "result": 3.346}, {"measurement": "A32_logFC", "setting": "Degron-ID 2941, SEQ ID NO 79, 46F_47Q_49E_50I_52G_53A_54C_55F_67L", "result": 3.477}, {"measurement": "A32_logFC", "setting": "Degron-ID 2943, SEQ ID NO 71, 46F_47Q_49E_50I_52G_53A_54E_55F_67L", "result": 3.525}, {"measurement": "A32_logFC", "setting": "Degron-ID 2948, SEQ ID NO 84, 46F_47Q_49E_50I_52G_53A_54K_55F_67L", "result": 3.461}, {"measurement": "A32_logFC", "setting": "Degron-ID 2949, SEQ ID NO 65, 46F_47Q_49E_50I_52G_53A_54L_55F_67L", "result": 3.534}, {"measurement": "A32_logFC", "setting": "Degron-ID 2950, SEQ ID NO 54, 46F_47Q_49E_50I_52G_53A_54M_55F_67L", "result": 3.574}, {"measurement": "A32_logFC", "setting": "Degron-ID 2953, SEQ ID NO 58, 46F_47Q_49E_50I_52G_53A_54Q_55F_67L", "result": 3.557}, {"measurement": "A32_logFC", "setting": "Degron-ID 2956, SEQ ID NO 137, 46F_47Q_49E_50I_52G_53A_54T_55F_67L", "result": 3.256}, {"measurement": "A32_logFC", "setting": "Degron-ID 2988, SEQ ID NO 97, 46F_47Q_49E_50V_52G_53A_54K_55F_67L", "result": 3.401}, {"measurement": "A32_logFC", "setting": "Degron-ID 2990, SEQ ID NO 72, 46F_47Q_49E_50V_52G_53A_54M_55F_67L", "result": 3.522}, {"measurement": "A32_logFC", "setting": "Degron-ID 2991, SEQ ID NO 55, 46F_47Q_49E_50V_52G_53A_54N_55F_67L", "result": 3.561}, {"measurement": "A32_logFC", "setting": "Degron-ID 2992, SEQ ID NO 64, 46F_47Q_49E_50V_52G_53A_54P_55F_67L", "result": 3.535}, {"measurement": "A32_logFC", "setting": "Degron-ID 2995, SEQ ID NO 67, 46F_47Q_49E_50V_52G_53A_54S_55F_67L", "result": 3.531}, {"measurement": "A32_logFC", "setting": "Degron-ID 3000, SEQ ID NO 100, 46F_47Q_49N_50I_52G_53A_54A_55F_67L", "result": 3.386}, {"measurement": "A32_logFC", "setting": "Degron-ID 3001, SEQ ID NO 105, 46F_47Q_49N_50I_52G_53A_54C_55F_67L", "result": 3.375}, {"measurement": "A32_logFC", "setting": "Degron-ID 3007, SEQ ID NO 7, 46F_47Q_49N_50I_52G_53A_54I_55F_67L", "result": 3.811}, {"measurement": "A32_logFC", "setting": "Degron-ID 3008, SEQ ID NO 134, 46F_47Q_49N_50I_52G_53A_54K_55F_67L", "result": 3.259}, {"measurement": "A32_logFC", "setting": "Degron-ID 3013, SEQ ID NO 127, 46F_47Q_49N_50I_52G_53A_54Q_55F_67L", "result": 3.279}, {"measurement": "A32_logFC", "setting": "Degron-ID 3014, SEQ ID NO 133, 46F_47Q_49N_50I_52G_53A_54R_55F_67L", "result": 3.262}, {"measurement": "A32_logFC", "setting": "Degron-ID 3015, SEQ ID NO 114, 46F_47Q_49N_50I_52G_53A_54S_55F_67L", "result": 3.343}, {"measurement": "A32_logFC", "setting": "Degron-ID 3016, SEQ ID NO 6, 46F_47Q_49N_50I_52G_53A_54T_55F_67L", "result": 3.867}, {"measurement": "A32_logFC", "setting": "Degron-ID 3017, SEQ ID NO 80, 46F_47Q_49N_50I_52G_53A_54V_55F_67L", "result": 3.473}, {"measurement": "A32_logFC", "setting": "Degron-ID 3047, SEQ ID NO 106, 46F_47Q_49N_50V_52G_53A_54I_55F_67L", "result": 3.374}, {"measurement": "A32_logFC", "setting": "Degron-ID 3057, SEQ ID NO 94, 46F_47Q_49N_50V_52G_53A_54V_55F_67L", "result": 3.409}, {"measurement": "A32_logFC", "setting": "Degron-ID 3060, SEQ ID NO 68, 46F_47Q_49P_50I_52G_53A_54A_55F_67L", "result": 3.529}, {"measurement": "A32_logFC", "setting": "Degron-ID 3062, SEQ ID NO 8, 46F_47Q_49P_50I_52G_53A_54D_55F_67L", "result": 3.806}, {"measurement": "A32_logFC", "setting": "Degron-ID 3066, SEQ ID NO 120, 46F_47Q_49P_50I_52G_53A_54H_55F_67L", "result": 3.318}, {"measurement": "A32_logFC", "setting": "Degron-ID 3067, SEQ ID NO 10, 46F_47Q_49P_50I_52G_53A_54I_55F_67L", "result": 3.792}, {"measurement": "A32_logFC", "setting": "Degron-ID 3068, SEQ ID NO 90, 46F_47Q_49P_50I_52G_53A_54K_55F_67L", "result": 3.436}, {"measurement": "A32_logFC", "setting": "Degron-ID 3069, SEQ ID NO 107, 46F_47Q_49P_50I_52G_53A_54L_55F_67L", "result": 3.373}, {"measurement": "A32_logFC", "setting": "Degron-ID 3071, SEQ ID NO 50, 46F_47Q_49P_50I_52G_53A_54N_55F_67L", "result": 3.58}, {"measurement": "A32_logFC", "setting": "Degron-ID 3074, SEQ ID NO 62, 46F_47Q_49P_50I_52G_53A_54R_55F_67L", "result": 3.549}, {"measurement": "A32_logFC", "setting": "Degron-ID 3075, SEQ ID NO 11, 46F_47Q_49P_50I_52G_53A_54S_55F_67L", "result": 3.79}, {"measurement": "A32_logFC", "setting": "Degron-ID 3076, SEQ ID NO 56, 46F_47Q_49P_50I_52G_53A_54T_55F_67L", "result": 3.56}, {"measurement": "A32_logFC", "setting": "Degron-ID 3079, SEQ ID NO 109, 46F_47Q_49P_50I_52G_53A_54Y_55F_67L", "result": 3.361}, {"measurement": "A32_logFC", "setting": "Degron-ID 3080, SEQ ID NO 129, 46F_47Q_49P_50Q_52G_53A_54A_55F_67L", "result": 3.273}, {"measurement": "A32_logFC", "setting": "Degron-ID 3081, SEQ ID NO 138, 46F_47Q_49P_50Q_52G_53A_54C_55F_67L", "result": 3.255}, {"measurement": "A32_logFC", "setting": "Degron-ID 3097, SEQ ID NO 92, 46F_47Q_49P_50Q_52G_53A_54V_55F_67L", "result": 3.423}, {"measurement": "A32_logFC", "setting": "Degron-ID 3101, SEQ ID NO 83, 46F_47Q_49P_50V_52G_53A_54C_55F_67L", "result": 3.465}]}
